Literature values, collected in patent US12138350B2, “Method of producing a extruded composition” (Cubic Pharmaceuticals Ltd., priority 2015, dated 2024).

Conditions: Ramukutty and Ramachandran 2014

Temperature up to which stable: about 152 °C
Structure (SMILES): CC(C)Cc1ccc(C(C)C(=O)O)cc1 (racemic) [Ibuprofen, (RS)-2-(4-(2-methylpropyl)phenyl)propanoic acid]
